Biological target: T1, ligand binding domain of human ROR gamma (Homo sapiens, UniProt P51449)
T1 construct: NM_001001523; expressed in transfected cells; host or cells: HEK293T
T1 sequence (P51449 247-497 isoform P51449-2): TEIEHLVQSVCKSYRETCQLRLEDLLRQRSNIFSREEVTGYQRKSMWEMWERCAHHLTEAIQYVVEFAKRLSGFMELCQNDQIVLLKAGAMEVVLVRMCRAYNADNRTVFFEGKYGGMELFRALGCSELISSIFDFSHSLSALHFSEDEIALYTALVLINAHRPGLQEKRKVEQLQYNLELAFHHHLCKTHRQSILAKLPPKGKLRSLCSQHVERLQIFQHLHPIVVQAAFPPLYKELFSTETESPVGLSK
Assay: ROR gamma reporter gene assay (GAL4-RORγ LBD luciferase, Dual-Glo)
Type: cell-based
Conditions: HEK293T cells transfected with pM-ROR gamma, 8 concentrations 3.5 nM to 10.5 μM, 24 h incubation; read-out: result (pIC50, inhibition of RORγ transcriptional activity) (converted)
Method: Luciferase reporter gene assay was used to assess inhibition of RORγ transcriptional activity.
ROR gamma expression vector was prepared by inserting the ligand binding domain of human ROR gamma (amino acid 247-497 of Genbank Accession NO. NM_001001523) adjacent to the yeast GAL4 transcription factor DNA binding domain in the expression vector pM (Clontech). The resulting expression vector pM-ROR gamma was used in transfection experiments together with the pGL4 luciferase reporter plasmid (Promega) containing five copies of the UAS GAL4 recognition site and pRL-CMV plasmids (Promega) containing the constitutive CMV promoter and the renilla luciferase.
For preparing transfection reagent/DNA mixture, 1 μg pM-ROR gamma, 1 μg pGL4 5×UAS, 625 pg pRL-CMV and 6.25 μL FuGENE™ HD transfection reagent (Promega) were mixed in 0.25 mL OPTI-MEM™ (Life technologies) at room temperature. At the same time, Negative control DNA mixture was prepared by using 1 μg pM empty vector instead of pM-ROR gamma plasmid. After a fifteen minute incubation, 0.25 mL of transfection reagent/DNA mixture was added to 1,000,000 of HEK293T cells (ATCC) in 5 mL of OPTI-MEM™ containing 10% Charcoal Stripped Fetal Bovine Serum.
Transfected cells were seeded onto 384 well plate (10 μL/well) and the 7.5 nL of test compounds were added to the wells in 8 concentrations ranging from 3.5 nM to 10.5 μM. The compounds were dissolved in 100% DMSO and the final concentration of DMSO in the assay was 0.075%.
After 24 h of incubation at 37° C., 5% CO2 in a cell culture incubator, the Dual-Glo™ Luciferase Assay System was used to detect activity according to the manufacturer's instructions (Promega, Cat. No.: E2920).
Data was plotted and pIC50 values were calculated using the XLfit program (ID Business Solutions Ltd.).

Row | IC50 [pM] | Structure (SMILES)
1 | 93300 | CC(=O)Nc1cccc(Cl)c1C(=O)CN(Cc1cc(F)cc(F)c1)C(=O)c1cnn([C@H]2CC[C@H](C(=O)O)CC2)c1C(F)(F)F [Example 13, trans-4-(4-((2-(2-acetamido-6-chlorophenyl)-2-oxoethyl)(3,5-difluorobenzyl)carbamoyl)-5-(trifluoromethyl)-1H-pyrazol-1-yl)cyclohexanecarboxylic acid]
2 | 95500 | O=C(CN(Cc1cc(F)cc(F)c1)C(=O)c1cnn([C@H]2CC[C@H](C(=O)O)CC2)c1C(F)(F)F)c1c(O)cccc1Cl [Example 15, trans-4-(4-((2-(2-chloro-6-hydroxyphenyl)-2-oxoethyl)(3,5-difluorobenzyl)carbamoyl)-5-(trifluoromethyl)-1H-pyrazol-1-yl)cyclohexanecarboxylic acid]
3 | 24500 | O=C(CN(Cc1cc(F)cc(F)c1)C(=O)c1cnn([C@H]2CC[C@H](C(=O)O)CC2)c1C1CC1)c1c(Cl)cncc1Cl [Example 17, trans-4-(5-cyclopropyl-4-((2-(3,5-dichloropyridin-4-yl)-2-oxoethyl)(3,5-difluorobenzyl)carbamoyl)-1H-pyrazol-1-yl)cyclohexanecarboxylic acid]
4 | 11700 | O=C(CN(Cc1cc(F)cc(F)c1)C(=O)c1cnn([C@H]2CC[C@H](C(=O)O)CC2)c1C(F)(F)F)c1c(Cl)cc(C(F)F)cc1Cl [Example 18, trans-4-(4-((2-(2,6-dichloro-4-(difluoromethyl)phenyl)-2-oxoethyl)(3,5-difluorobenzyl)carbamoyl)-5-(trifluoromethyl)-1H-pyrazol-1-yl)cyclohexanecarboxylic acid]
5 | 70800 | O=C(CN(Cc1cc(F)cc(F)c1)C(=O)c1cnn([C@H]2CC[C@H](C(=O)O)CC2)c1C(F)F)c1c(Cl)cncc1Cl [Example 20, trans-4-(4-((2-(3,5-Dichloropyridin-4-yl)-2-oxoethyl)(3,5-difluorobenzyl)carbamoyl)-5-(difluoromethyl)-1H-pyrazol-1-yl)cyclohexanecarboxylic acid]
6 | > 1e+07 | Nc1nccc(Cl)c1C(=O)CN(Cc1cc(F)cc(F)c1)C(=O)c1cnn([C@H]2CC[C@H](C(=O)O)CC2)c1C(F)(F)F [Example 21, trans-4-(4-((2-(2-amino-4-chloropyridin-3-yl)-2-oxoethyl)(3,5-difluorobenzyl)carbamoyl)-5-(trifluoromethyl)-1H-pyrazol-1-yl)cyclohexanecarboxylic acid]
7 | > 1e+07 | N#Cc1ccccc1CN(CC(=O)c1c(Cl)cncc1Cl)C(=O)c1cnn([C@H]2CC[C@H](C(=O)O)CC2)c1C(F)(F)F [Example 22, trans-4-(4-((2-cyanobenzyl)(2-(3,5-dichloropyridin-4-yl)-2-oxoethyl)carbamoyl)-5-(trifluoromethyl)-1H-pyrazol-1-yl)cyclohexanecarboxylic acid]
8 | 263000 | O=C(CN(Cc1ccc(F)cc1)C(=O)c1cnn([C@H]2CC[C@@H](C(=O)O)CC2)c1C(F)(F)F)c1c(Cl)cncc1Cl [Example 25, cis-4-(4-((2-(3,5-dichloropyridin-4-yl)-2-oxoethyl)(4-fluorobenzyl)carbamoyl)-5-(trifluoromethyl)-1H-pyrazol-1-yl)cyclohexaneca rboxylic acid]
9 | 282000 | CC(C)CN(CC(=O)c1c(Cl)cncc1Cl)C(=O)c1cnn([C@H]2CC[C@H](C(=O)O)CC2)c1C(F)(F)F [Example 26, trans-4-(4-((2-(3,5-dichloropyridin-4-yl)-2-oxoethyl)(isobutyl)carbamoyl)-5-(trifluoromethyl)-1H-pyrazol-1-yl)cyclohexanecarboxylic acid]
10 | 81300 | CC(C)CCN(CC(=O)c1c(Cl)cncc1Cl)C(=O)c1cnn([C@H]2CC[C@H](C(=O)O)CC2)c1C(F)(F)F [Example 32, trans-4-(4-((2-(3,5-dichloropyridin-4-yl)-2-oxoethyl)(isopentyl)carbamoyl)-5-(trifluorornethyl)-1H-pyrazol-1-yl)cyclohexanecarboxylic acid]

Continued, compound first:

Row | Structure (SMILES) | IC50 [pM]
11 | CC1(C)CC[C@H](CN(CC(=O)c2c(Cl)cncc2Cl)C(=O)c2cnn([C@H]3CC[C@H](C(=O)O)CC3)c2C(F)(F)F)O1 [Example 16, trans-4-(4-((2-(3,5-dichloropyridin-4-yl)-2-oxoethyl)(((R)-5,5-dimethylTHF-2-yl)methyl)carbamoyl)-5-(trifluoromethyl)-1H-pyrazol-1-yl)cyclohexanecarboxylic acid] | 117000
12 | CC1(O)CCC(CN(CC(=O)c2c(Cl)cncc2Cl)C(=O)c2cnn([C@H]3CC[C@H](C(=O)O)CC3)c2C(F)(F)F)CC1 (stereo partly drawn) [Example 19, trans-4-(4-((2-(3,5-dichloropyridin-4-yl)-2-oxoethyl)((4-hydroxy-4-methylcyclohexyl)methyl)carbamoyl)-5-(trifluoromethyl)-1H-pyrazol-1-yl)cyclohexanecarboxylic acid] | > 1e+07
13 | CC1(C)CC(CN(CC(=O)c2c(Cl)cncc2Cl)C(=O)c2cnn([C@H]3CC[C@H](C(=O)O)CC3)c2C(F)(F)F)C1 [Example 23, trans-4-(4-((2-(3,5-dichloropyridin-4-yl)-2-oxoethyl)((3,3-dimethylcyclobutyl)methyl)carbamoyl)-5-(trifluoromethyl)-1H-pyrazol-1-yl)cyclohexanecarboxylic acid] | 24000
14 | O=C(O)C1CCC(n2ncc(C(=O)N(CCc3c(Cl)cncc3Cl)Cc3ccc(F)cc3)c2C(F)(F)F)CC1 (stereo not drawn) [Example 24, 4-(4-((2-(3,5-dichloropyridin-4-yl)ethyl)(4-fluorobenzyl)carbamoyl)-5-(trifluoromethyl)-1H-pyrazol-1-yl)cyclohexanecarboxylic acid] | 166000
15 | CC(C)(C)CN(CC(=O)c1c(Cl)cncc1Cl)C(=O)c1cnn([C@H]2CC[C@H](C(=O)O)CC2)c1C(F)(F)F [Example 27, trans-4-(4-((2-(3,5-dichloropyridin-4-yl)-2-oxoethyl)(neopentyl)carbamoyl)-5-(trifluoromethyl)-1H-pyrazol-1-yl)cyclohexanecarboxylic acid] | 56200
16 | O=C(CN(CC1CCC1)C(=O)c1cnn([C@H]2CC[C@H](C(=O)O)CC2)c1C(F)(F)F)c1c(Cl)cncc1Cl [Example 28, trans-4-(4-((cyclobutylmethyl)(2-(3,5-dichloropyridin-4-yl)-2-oxoethyl)carbamoyl)-5-(trifluoromethyl)-1H-pyrazol-1-yl)cyclohexanecarboxylic acid] | 195000
17 | O=C(CN(CC1CCCC1)C(=O)c1cnn([C@H]2CC[C@H](C(=O)O)CC2)c1C(F)(F)F)c1c(Cl)cncc1Cl [Example 29, trans-4-(4-((cyclopentylmethyl)(2-(3,5-dichloropyridin-4-yl)-2-oxoethyl)carbamoyl)-5-(trifluoromethyl)-1H-pyrazol-1-yl)cyclohexanecarboxylic acid] | 75900
18 | O=C(CN(CC1CCCCC1)C(=O)c1cnn([C@H]2CC[C@H](C(=O)O)CC2)c1C(F)(F)F)c1c(Cl)cncc1Cl [Example 30, trans-4-(4-((cyclohexylmethyl)(2-(3,5-dichloropyridin-4-yl)-2-oxoethyl)carbamoyl)-5-(trifluoromethyl)-1H-pyrazol-1-yl)cyclohexanecarboxylic acid] | 46800
19 | CC1(CN(CC(=O)c2c(Cl)cncc2Cl)C(=O)c2cnn([C@H]3CC[C@H](C(=O)O)CC3)c2C(F)(F)F)CC1 [Example 31, trans-4-(4-((2-(3,5-dichloropyridin-4-yl)-2-oxoethyl)((1-methylcyclopropyl)methyl)carbamoyl)-5-(trifluorornethyl)-1H-pyrazol-1-yl)cyclohexanecarboxylic acid] | 77600
20 | CC(C)(C)CCN(CC(=O)c1c(Cl)cncc1Cl)C(=O)c1cnn([C@H]2CC[C@H](C(=O)O)CC2)c1C(F)(F)F [Example 33, trans-4-(4-((2-(3,5-dichloropyridin-4-yl)-2-oxoethyl)(3,3-dimethylbutyl)carbamoyl)-5-(trifluorornethyl)-1H-pyrazol-1-yl)cyclohexanecarboxylic acid] | 112000
21 | O=C(CN(CCC1CC1)C(=O)c1cnn([C@H]2CC[C@H](C(=O)O)CC2)c1C(F)(F)F)c1c(Cl)cncc1Cl [Example 34, trans-4-(4-((2-cyclopropylethyl)(2-(3,5-dichloropyridin-4-yl)-2-oxoethyl)carbamoyl)-5-(trifluoromethyl)-1H-pyrazol-1-yl)cyclohexanecarboxyic acid] | 1.35e+06

From patent US9365522B2, “Pyrazole amide derivative” (AMGEN INC., priority 2015, dated 2016)
